Patent US20050106141A1, “Hairless protein-interacting partner complexes and methods thereof for the beautification and/or improvement of mammalian skin” (The Procter & Gamble Company, priority 2003, published 2005)
Read-outs that look alike come from different tables or passages of the source.

Key:
[1] = target: T1, BD-VDR><AD-TRβ interaction (Mus musculus, UniProt P48281); assay: Yeast two-hybrid alpha-galactosidase reporter assay, BD-VDR interaction with AD-TRβ; format: cell-based; details: assay of example 3
T1 construct: expressed in transfected cells; host or cells: yeast
T1 sequence (P48281 1-422): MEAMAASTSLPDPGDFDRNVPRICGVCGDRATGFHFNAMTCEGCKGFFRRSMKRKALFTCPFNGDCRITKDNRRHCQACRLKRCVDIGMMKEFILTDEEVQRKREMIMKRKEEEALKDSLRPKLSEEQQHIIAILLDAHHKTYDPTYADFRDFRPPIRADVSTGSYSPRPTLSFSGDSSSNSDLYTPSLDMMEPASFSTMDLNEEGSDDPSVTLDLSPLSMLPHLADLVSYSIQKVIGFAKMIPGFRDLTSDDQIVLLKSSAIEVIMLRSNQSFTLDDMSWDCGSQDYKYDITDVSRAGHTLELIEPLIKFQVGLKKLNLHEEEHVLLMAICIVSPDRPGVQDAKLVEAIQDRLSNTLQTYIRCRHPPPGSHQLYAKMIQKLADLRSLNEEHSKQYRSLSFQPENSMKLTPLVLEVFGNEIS
T1 sequence (P10828 1-461 partner): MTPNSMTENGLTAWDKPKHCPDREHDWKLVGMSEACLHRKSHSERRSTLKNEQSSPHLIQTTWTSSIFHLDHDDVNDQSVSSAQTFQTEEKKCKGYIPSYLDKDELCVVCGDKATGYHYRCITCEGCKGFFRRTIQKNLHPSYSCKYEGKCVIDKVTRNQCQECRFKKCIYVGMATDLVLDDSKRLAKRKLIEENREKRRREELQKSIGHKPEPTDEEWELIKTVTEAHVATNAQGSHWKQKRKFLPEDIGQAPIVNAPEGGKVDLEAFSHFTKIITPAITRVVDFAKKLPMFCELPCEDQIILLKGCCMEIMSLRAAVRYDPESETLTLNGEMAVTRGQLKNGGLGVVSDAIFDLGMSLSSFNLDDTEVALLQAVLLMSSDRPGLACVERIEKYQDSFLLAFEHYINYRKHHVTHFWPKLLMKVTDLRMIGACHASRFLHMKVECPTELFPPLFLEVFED
Method: Increase or decrease in alpha-galactosidase activity of AH109 (BD-HRt><AD-IP) strain grown in Leu, Trp, His TDO in the presence of various test compounds is used to screen for agonists or antagonists of BD-HRt><AD-IP interaction. A diverse library of compounds is screened.
Microtiter plates with TDO media seeded with freshly cultured yeast cells at 0.05 optical density at 650 nm (OD650) are treated with various test compounds at 100-400 uM or vehicle (DMSO) control. Stock solutions of test compounds at 10-20 mM are made in DMSO and tested at 100-400 μM final concentration. The final assay mixture comprising of cells, TDO and compound (or DMSO alone) is adjusted to be 100 ul and the amount of DMSO is maintained at or below 2%. The plates are incubated for 3-4 days without shaking at 25° C. Plates are briefly agitated to obtain uniform suspension of cells prior to addition of assay buffer. […] Plates are briefly agitated to obtain uniform suspension of cells and absorbance at both 650 nM (OD650)ref and 410 nm (OD410)ref are measured. […] For color development 100 ul of 0.1 M sodium carbonate solution is added and after standing for at least 1 minute, OD410exp is measured.

LXR [2] = details: oral administration, mice; cited from earlier work
LXR [3] = details: oral administration, hamsters; cited from earlier work

C=C1CC[C@H](O)C/C1=C/C=C1\CCC[C@]2(C)[C@@H]([C@H](C)CCCC(C)(C)O)CC[C@@H]12 [25 HC, 25-hydroxy cholecalciferol]
enhancement of BD-VDR / AD-TRβ interaction [1]: approximately 2 fold

O=S(=O)(c1ccccc1)N(CC(F)(F)F)c1ccc(C(O)(C(F)(F)F)C(F)(F)F)cc1 [T0901317]
plasma phospholipid levels (LXR [2]): increased | plasma triglyceride levels (LXR [2]): increased | plasma phospholipid levels (LXR [3]): increased | plasma triglyceride levels (LXR [3]): increased
